Measured values published in patent US8835428B2, “Diacylglycerol acyltransferase inhibitors” (Piramal Enterprises Limited, priority 2008, dated 2014).

Each compound was assayed against T1, hDGAT1 (Homo sapiens, UniProt O75907) (assay: In-vitro DGAT1 assay (hDGAT1 microsomes from Sf9 cells, 14C oleoyl CoA, triglyceride formation)). Conditions: At 1 μM.
T1 construct: host or cells: Sf9 insect cells (baculovirus); microsomal preparation
T1 sequence (O75907 1-488): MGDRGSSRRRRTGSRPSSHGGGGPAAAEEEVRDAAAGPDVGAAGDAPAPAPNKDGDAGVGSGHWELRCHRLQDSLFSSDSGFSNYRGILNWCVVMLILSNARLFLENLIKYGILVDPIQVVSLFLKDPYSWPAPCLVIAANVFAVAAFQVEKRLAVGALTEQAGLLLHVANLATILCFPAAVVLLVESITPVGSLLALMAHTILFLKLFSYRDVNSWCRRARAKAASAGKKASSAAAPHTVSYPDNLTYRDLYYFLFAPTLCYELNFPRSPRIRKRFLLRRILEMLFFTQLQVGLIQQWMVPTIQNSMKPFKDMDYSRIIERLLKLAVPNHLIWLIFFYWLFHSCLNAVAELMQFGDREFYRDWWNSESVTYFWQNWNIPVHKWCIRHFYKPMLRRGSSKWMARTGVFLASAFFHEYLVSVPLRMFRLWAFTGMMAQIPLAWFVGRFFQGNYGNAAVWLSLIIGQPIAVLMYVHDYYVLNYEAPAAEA
Format: biochemical
In short: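 Human DGAT1 in baculovirus-infected Sf9 microsomes (2.5–10 μg), [14C]oleoyl-CoA with 409.5, 1228.5 or 1638 μM 1,2-dioleoyl-sn-glycerol, Tris-HCl pH 7.4 buffer with BSA. Compounds screened at 10, 5 and 1 μM in duplicate. Reaction 10 min at 37 °C; heptane-extracted [14C]triglyceride counted by scintillation.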

For `COC(=O)[C@H](NC(=O)c1cc(-c2ccc(NC(=O)Nc3ccccc3F)cc2)no1)C(C)C` [Example 257, (R)-Methyl 2-(3-(4-(3-(2-fluorophenyl)ureido)phenyl)isoxazole-5-carboxamido)-3-methylbutanoate], which inhibition at 1 µM is on record?
The inhibition at 1 µM was 0 to 50%.

`CC(C)[C@@H](NC(=O)c1cc(-c2ccc(NC(=O)Nc3ccccc3F)cc2)no1)C(=O)O` [Example 258, (R)-2-(3-(4-(3-(2-Fluorophenyl)ureido)phenyl)isoxazole-5-carboxamido)-3-methylbutanoic acid] was tested. Which inhibition at 1 µM did it give?
The inhibition at 1 µM was 50 to 75%.

How did the inhibition at 1 µM turn out when `COC(=O)[C@H]1CCCN1C(=O)c1cc(-c2ccc(NC(=O)Nc3ccccc3F)cc2)no1` [Example 259, (R)-Methyl 1-(3-(4-(3-(2-fluorophenyl)ureido)phenyl)isoxazole-5-carbonyl)pyrrolidine-2-carboxylate] was run?
Its inhibition at 1 µM is 50 to 75%.

How did the inhibition at 1 µM turn out when `O=C(Nc1ccc(-c2cc(C(=O)N3CCC[C@@H]3C(=O)O)on2)cc1)Nc1ccccc1F` [Example 260, (R)-1-(3-(4-(3-(2-Fluorophenyl)ureido)phenyl)isoxazole-5-carbonyl) pyrrolidine-2-carboxylic acid] was run?
The inhibition at 1 µM was 50 to 75%.

`COC(=O)[C@@H]1CCCN1C(=O)c1cc(-c2ccc(NC(=O)Nc3ccccc3F)cc2)no1` [Example 261, (S)-Methyl 1-(3-(4-(3-(2-fluorophenyl)ureido)phenyl)isoxazole-5-carbonyl)pyrrolidine-2-carboxylate] was tested. Which inhibition at 1 µM did it give?
Its inhibition at 1 µM is 50 to 75%.

For `O=C(Nc1ccc(-c2cc(C(=O)N3CCC[C@H]3C(=O)O)on2)cc1)Nc1ccccc1F` [Example 262, (S)-1-(3-(4-(3-(2-Fluorophenyl)ureido)phenyl)isoxazole-5-carbonyl) pyrrolidine-2-carboxylic acid], which inhibition at 1 µM is on record?
The inhibition at 1 µM was 50 to 75%.

Same assay, conditions: At 5 μM

`O=C(O)CCCNC(=O)c1cc(-c2ccc(NC(=O)Nc3ccccc3F)cc2)no1` [Example 254, 4-(3-(4-(3-(2-Fluorophenyl)ureido)phenyl)isoxazole-5-carboxamido) butanoic acid] was tested. Which inhibition at 5 µM did it give?
Its inhibition at 5 µM is 50 to 75%.

Which “% inhibition of hDGAT1” value does the source give for `COC(=O)CCCNC(=O)c1cc(-c2ccc(NC(=O)Nc3ccc(C)cc3)cc2)no1` [Example 255, Methyl 4-(3-(4-(3-p-tolylureido)phenyl)isoxazole-5-carboxamido) butanoate] here?
Its value is “+ (>0% Inhibition ≦50)”.

Which inhibition at 5 µM does the source give for `Cc1ccc(NC(=O)Nc2ccc(-c3cc(C(=O)NCCCC(=O)O)on3)cc2)cc1` [Example 256, 4-(3-(4-(3-p-Tolylureido)phenyl)isoxazole-5-carboxamido)butanoic acid] here?
The inhibition at 5 µM was 50 to 75%.

With `COC(=O)C(NC(=O)c1cc(-c2ccc(NC(=O)NS(=O)(=O)c3ccccc3C)cc2)no1)C(C)C` (stereo not shown) [Example 263, Methyl 3-methyl-2-(3-(4-(3-(o-tolylsulfonyl)ureido)phenyl)isoxazole-5-carboxamido)butanoate] as the compound, how does the inhibition at 5 µM read?
Its inhibition at 5 µM is 0 to 50%.

Which inhibition at 5 µM does the source give for `Cc1ccccc1S(=O)(=O)NC(=O)Nc1ccc(-c2cc(C(=O)NC(C(=O)O)C(C)C)on2)cc1` (stereo not shown) [Example 264, 3-Methyl-2-(3-(4-(3-(o-tolylsulfonyl)ureido)phenyl)isoxazole-5-carboxamido)butanoic acid] here?
Its inhibition at 5 µM is 0 to 50%.

Which inhibition at 5 µM does the source give for `COC(=O)[C@@H](NC(=O)c1cc(-c2ccc(NC(=O)Nc3cccc(C)c3)cc2)no1)C(C)C` [Example 265, (S)-methyl 3-methyl-2-(3-(4-(3-m-tolylureido)phenyl)isoxazole-5-carboxamido)butanoate] here?
Its inhibition at 5 µM is 50 to 75%.

Which inhibition at 5 µM does the source give for `Cc1cccc(NC(=O)Nc2ccc(-c3cc(C(=O)N[C@H](C(=O)O)C(C)C)on3)cc2)c1` [Example 266, (S)-3-methyl-2-(3-(4-(3-m-tolylureido)phenyl)isoxazole-5-carboxamido)butanoic acid] here?
The inhibition at 5 µM was 75 to 100%.

How did the inhibition at 5 µM turn out when `COC(=O)[C@@H](NC(=O)c1cc(-c2ccc(NC(=S)Nc3cccc(F)c3)cc2)no1)C(C)C` [Example 267, (S)-methyl 2-(3-(4-(3-(3-fluorophenyl)thioureido)phenyl)isoxazole-5-carboxamido)-3-methylbutanoate] was run?
Its inhibition at 5 µM is 0 to 50%.

With `CC(C)[C@H](NC(=O)c1cc(-c2ccc(NC(=S)Nc3cccc(F)c3)cc2)no1)C(=O)O` [Example 268, (S)-2-(3-(4-(3-(3-fluorophenyl)thioureido)phenyl)isoxazole-5-carboxamido)-3-methylbutanoic acid] as the compound, how does the inhibition at 5 µM read?
Its inhibition at 5 µM is 50 to 75%.

With `COC(=O)[C@@H](NC(=O)c1cc(-c2ccc(NC(=S)Nc3ccccc3F)cc2)no1)C(C)C` [Example 269, (S)-methyl 2-(3-(4-(3-(2-fluorophenyl)thioureido)phenyl)isoxazole-5-carboxamido)-3-methylbutanoate] as the compound, how does the inhibition at 5 µM read?
The inhibition at 5 µM was 0 to 50%.

With `CC(C)[C@H](NC(=O)c1cc(-c2ccc(NC(=S)Nc3ccccc3F)cc2)no1)C(=O)O` [Example 270, (S)-2-(3-(4-(3-(2-fluorophenyl)thioureido)phenyl)isoxazole-5-carboxamido)-3-methylbutanoic acid] as the compound, how does the inhibition at 5 µM read?
The inhibition at 5 µM was 50 to 75%.

Which inhibition at 5 µM does the source give for `COC(=O)[C@@H](NC(=O)c1cc(-c2ccc(NC(=S)Nc3ccc(C)cc3)cc2)no1)C(C)C` [Example 271, (S)-Methyl 3-methyl-2-(3-(4-(3-p-tolylthioureido)phenyl)isoxazole-5-carboxamido)butanoate] here?
Its inhibition at 5 µM is 0 to 50%.

For `COC(=O)[C@H](Cc1ccc(O)cc1)NC(=O)c1cc(-c2ccc(NC(=O)Nc3ccc(C)cc3)cc2)no1` [Example 272, (S)-Methyl 3-(4-hydroxyphenyl)-2-(3-(4-(3-p-tolylureido)phenyl)isoxazole-5-carboxamido)propanoate], which inhibition at 5 µM is on record?
Its inhibition at 5 µM is 0 to 50%.

`Cc1ccc(NC(=O)Nc2ccc(-c3cc(C(=O)N[C@@H](Cc4ccc(O)cc4)C(=O)O)on3)cc2)cc1` [Example 273, (S)-3-(4-Hydroxyphenyl)-2-(3-(4-(3-p-tolylureido)phenyl)isoxazole-5-carboxamido)propanoic acid] was tested. Which inhibition at 5 µM did it give?
Its inhibition at 5 µM is 50 to 75%.

For `COC(=O)[C@H](Cc1ccc(O)cc1)NC(=O)c1cc(-c2ccc(NC(=O)Nc3ccccc3F)cc2)no1` [Example 274, (S)-Methyl 2-(3-(4-(3-(2-fluorophenyl)ureido)phenyl)isoxazole-5-carboxamido)-3-(4-hydroxyphenyl)propanoate], which inhibition at 5 µM is on record?
The inhibition at 5 µM was 0 to 50%.

For `COC(=O)C(NC(=O)c1cc(-c2ccc(NC(=O)Nc3ccc(C(F)(F)F)cc3)cc2)no1)C(C)C` (stereo not shown) [Example 275, Methyl 3-methyl-2-(3-(4-(3-(4-(trifluoromethyl)phenyl)ureido)phenyl)isoxazole-5-carboxamido)butanoate], which inhibition at 5 µM is on record?
The inhibition at 5 µM was 0 to 50%.

With `CC(C)C(NC(=O)c1cc(-c2ccc(NC(=O)Nc3ccc(C(F)(F)F)cc3)cc2)no1)C(=O)O` (stereo not shown) [Example 276, 3-Methyl-2-(3-(4-(3-(4-(trifluoromethyl)phenyl)ureido)phenyl)isoxazole-5-carboxamido)butanoic acid] as the compound, how does the inhibition at 5 µM read?
The inhibition at 5 µM was 75 to 100%.

`COC(=O)C(NC(=O)c1cc(-c2ccc(NC(=O)Nc3cccc(C(F)(F)F)c3)cc2)no1)C(C)C` (stereo not shown) [Example 277, Methyl 3-methyl-2-(3-(4-(3-(3-(trifluoromethyl)phenyl)ureido)phenyl)isoxazole-5-carboxamido)butanoate] was tested. Which inhibition at 5 µM did it give?
Its inhibition at 5 µM is 0 to 50%.

`CC(C)C(NC(=O)c1cc(-c2ccc(NC(=O)Nc3cccc(C(F)(F)F)c3)cc2)no1)C(=O)O` (stereo not shown) [Example 278, 3-Methyl-2-(3-(4-(3-(3-(trifluoromethyl)phenyl)ureido)phenyl)isoxazole-5-carboxamido)butanoic acid] was tested. Which inhibition at 5 µM did it give?
The inhibition at 5 µM was 75 to 100%.
